A short description of the data set: Secondary structure analysis by circular dichroism (helical content). The format is physicochemical. As to conditions: for Helical content (%) 30% TFE: PBS containing 30% trifluoroethanol, 50 μM peptide; for Helical content (%) PBS: PBS pH 7.0, 50 μM peptide. The protocol:
The secondary structures of peptides synthesized in the above Example were analyzed by means of circular dichroism and the circular dichroism spectra of synthesized peptides were analyzed by using 715 CD spectropolarimeter (Jasco Co., Ltd., JAPAN). The peptides of WT(SEQ ID NO. 4), MT(SEQ ID NO. 5), Ncap-MT(SEQ ID NO. 7), Caps-WT(SEQ ID NO. 8), Caps-MT(SEQ ID NO. 9) were dissolved in PBS(pH 7.0) with 100 mM sodium phosphate and 150 mM NaCl to make the final concentration of each peptide 50 μM and were placed for spectrum analyses.
(2)Analyses of Secondary Structures of Peptides in Phosphate Buffered Saline (PBS) containing Trifluoroethanol Experiments were performed the same as described in the above Experimental Example 1 (1) with the exception that the PBS contained 30% trifluoroethanol.
In general terms: CD spectra are sensitive to the conformation of chiral molecules.

Where no end group is shown, it is not given here.

For the substance “APKEWMAWAREIAAYAKLIAALI-NH2 [Ncap-MT, APKEWMaWaREIaaYakLIaaLI]”, the “Helical content (%) 30% TFE” value amounted to 68% and the “Helical content (%) PBS” value stood at 69%.

Regarding “APKEWMEWDREINNYTSLIHSLIKQGI-NH2 [Caps-WT]”, the “Helical content (%) 30% TFE” value stood at 77% and the “Helical content (%) PBS” value turned out to be 21%.

On to WMEWDREINNYTSLIHSLI [WT], for which the “Helical content (%) 30% TFE” value worked out at 24% and the “Helical content (%) PBS” value amounted to 18%.

The record behind these values is patent US6489449B2, “Peptides for inhibition of HIV infection” (priority 2000, dated 2002).
